Assay: xn = mol fraction of the nth substance listed

C[n+]1ccn(CCCC#N)c1.O=S(=O)([O-])C(F)(F)F + CC#N
101 kPa
Conditions | electrical conductivity [S/m] | viscosity [mPa·s]
288.15 K, x1 = 0.1002 | 2.7 | 1.65
288.15 K, x1 = 0.2994 | 1.04 | 16.49
288.15 K, x1 = 0.5 | 0.185 | 109.8
293.15 K, x1 = 0.6005 | 0.22 | 119.8
298.15 K, x1 = 0.7996 | 0.114 | 307
303.15 K, x1 = 0.9007 | 0.082 | 330
303.15 K, x1 = 1 | 0.06 | 422
308.15 K, x1 = 0.2994 | 1.7 | 9.19
308.15 K, x1 = 1 | 0.08 | 310
313.15 K, x1 = 0.2002 | 2.88 | 3.74
313.15 K, x1 = 0.5 | 0.575 | 36.34
313.15 K, x1 = 0.7996 | 0.239 | 133.1
318.15 K, x1 = 0.1002 | 3.76 | 1.06
318.15 K, x1 = 0.5 | 0.679 | 29.94
318.15 K, x1 = 0.698 | 0.351 | 73.7
318.15 K, x1 = 0.9007 | 0.168 | 135
323.15 K, x1 = 0.1002 | 3.95 | 0.99
323.15 K, x1 = 0.6005 | 0.7 | 32.11

CC[N+](CC)=C(N(C)C)N(C)C.O=S(=O)([N-]S(=O)(=O)C(F)(F)F)C(F)(F)F + CCO
101 kPa
Conditions | electrical conductivity, 293.2 K [S/m] | viscosity, 293.15 K [mPa·s] | viscosity, 298.15 K [mPa·s] | viscosity, 303.15 K [mPa·s] | viscosity, 308.15 K [mPa·s] | viscosity, 313.15 K [mPa·s] | viscosity, 318.15 K [mPa·s] | viscosity, 323.15 K [mPa·s]
x1 = 0.0004697 | 0.0209 | 1.188 | 1.083 | 0.985 | 0.895 | 0.825 | 0.758 | 0.701
x1 = 0.0008976 | 0.0341 | 1.203 | 1.096 | 0.996 | 0.905 | 0.834 | 0.766 | 0.708
x1 = 0.002294 | 0.0657 | 1.228 | 1.119 | 1.016 | 0.922 | 0.849 | 0.78 | 0.72
x1 = 0.004714 | 0.109 | 1.266 | 1.146 | 1.04 | 0.945 | 0.871 | 0.8 | 0.738
x1 = 0.009053 | 0.167 | 1.318 | 1.197 | 1.088 | 0.987 | 0.909 | 0.835 | 0.772
x1 = 0.018 | 0.278 | 1.438 | 1.304 | 1.185 | 1.075 | 0.989 | 0.909 | 0.839
x1 = 0.02647 | 0.393 | 1.561 | 1.414 | 1.282 | 1.162 | 1.069 | 0.981 | 0.904
x1 = 0.03521 | 0.477 | 1.7 | 1.537 | 1.394 | 1.263 | 1.156 | 1.061 | 0.98
x1 = 0.04396 | 0.552 | 1.85 | 1.66 | 1.502 | 1.363 | 1.253 | 1.149 | 1.06
x1 = 0.05173 | 0.591 | 1.99 | 1.79 | 1.612 | 1.459 | 1.327 | 1.218 | 1.121
x1 = 0.06055 | 0.661 | 2.15 | 1.92 | 1.73 | 1.564 | 1.419 | 1.304 | 1.199
x1 = 0.07263 | 0.716 | 2.38 | 2.12 | 1.91 | 1.72 | 1.557 | 1.423 | 1.306
x1 = 0.08417 | 0.756 | 2.61 | 2.32 | 2.08 | 1.87 | 1.69 | 1.542 | 1.412
x1 = 0.1028 | 0.848 | 2.97 | 2.65 | 2.37 | 2.13 | 1.92 | 1.75 | 1.592
x1 = 0.1216 | 0.904 | 3.38 | 3.01 | 2.69 | 2.42 | 2.18 | 1.96 | 1.77

CC[n+]1ccccc1.N#C[N-]C#N + CC(C)O
100 kPa
Conditions | viscosity [mPa·s]
288.15 K, x2 = 0.2997 | 15.1
293.15 K, x2 = 0.1055 | 18
298.15 K, x2 = 0.4023 | 9.28
303.15 K, x2 = 0.5998 | 5.49
308.15 K, x2 = 0.7006 | 3.8
308.15 K, x2 = 0.8997 | 2.27
313.15 K, x2 = 0 | 12.5
313.15 K, x2 = 0.5998 | 4.42
313.15 K, x2 = 0.7006 | 3.43
313.15 K, x2 = 0.8007 | 2.66
318.15 K, x2 = 0.5998 | 3.99
318.15 K, x2 = 0.7006 | 3.11

C[N+](C)(C)CCC[n+]1ccccc1.N#C[N-]C#N.N#C[N-]C#N + CO
100 kPa
Conditions | viscosity [mPa·s]
293.15 K, x1 = 0.3999 | 69.9
293.15 K, x1 = 0.8995 | 950
303.15 K, x1 = 0.5002 | 78.6
303.15 K, x1 = 0.7003 | 184
313.15 K, x1 = 0.0999 | 3.18
313.15 K, x1 = 0.3999 | 31.9
313.15 K, x1 = 0.5002 | 53.3
313.15 K, x1 = 0.7998 | 145
313.15 K, x1 = 1 | 386
323.15 K, x1 = 0.3002 | 13.6
323.15 K, x1 = 0.3999 | 23.6
323.15 K, x1 = 0.5002 | 38.3
323.15 K, x1 = 0.6001 | 54.1
333.15 K, x1 = 0.0999 | 2.54
333.15 K, x1 = 0.2001 | 6.12
333.15 K, x1 = 0.3999 | 18.5
333.15 K, x1 = 0.6001 | 38.5
